{
  "source": "patent US6767911B2",
  "about": "“Fungicidal active compound combinations” (priority 1994, dated 2004)",
  "key": {"[1]": {"system": "Botrytis cinerea", "assay": "Botrytis test (beans)/protective", "assay_type": "in vivo", "conditions": "protective, 3 days after inoculation", "description": "Botrytis Test (Beans)/Protective\nTo produce a suitable preparation of active compound, either commercially available formulations of active compound (individual active compound or active compound combinations) or one part by weight of active compound is mixed with 4.7 parts by weight of solvent (acetone) and 0.3 parts by weight of emulsifier (alkyl-aryl polyglycol ether), and the mixture is diluted with water to the desired concentration.\nTo test for protective activity, young plants are sprayed with the preparation of active compound until dripping wet. After the spray coating has dried on, 2 small pieces of agar covered with Botrytis cinerea are placed on each leaf. The inoculated plants are placed in a darkened humid chamber at 20° C. 3 days after the inoculation, the size of the infected spots on the leaves is evaluated.\nActive compounds, active compound concentrations and test results can be seen from the tables which follow."}, "[2]": {"system": "Penicillium custosum", "assay": "Agar plate test with Penicillium custosum", "assay_type": "cell-based", "conditions": "100 ppm, inhibition of growth after 6 days", "description": "Agar Plate Test With Penicillium custosum\n39 parts by weight of potato dextrose agar\n20 parts by weight of agar\nare dissolved in 1,000 ml of distilled water and the solution is kept in an autoclave at 121° C. for 20 minutes.\n50 parts by weight of acetone\n950 parts by weight of water\nRatio of the amount of solvent to nutrient medium: 1:100\nTo produce a suitable preparation of active compound, 1 part by weight of active compound is mixed with the stated amount of solvent.\nThe concentrate is thoroughly mixed, in the stated ratio, with the liquid nutrient medium, and the mixture is poured into Petri dishes.\nWhen the nutrient medium has cooled and solidified, the plates are inoculated with the following microorganisms and are incubated at about 21° C.: Penicillium custosum.\nEvaluation is carried out after 6 days, the inhibition of growth being used as a measure of the action of the products."}, "[3]": {"system": "Erysiphe graminis f.sp. hordei", "assay": "Erysiphe test (barley)/protective", "assay_type": "in vivo", "conditions": "protective, 125 g/ha, 7 days after inoculation", "description": "Erysiphe Test (Barley)/Protective\n(§1) To produce a suitable preparation of active compound, commercially available formulations of active compound are diluted with water to the desired concentration.\n(§2) To test for protective activity, young plants are sprayed with the preparation of active compound at the application rate shown.\nAfter the spray coating has dried on, the plants are dusted with spores of Erysiphe graminis f.sp. hordei.\n(§3) The plants are placed in a greenhouse at a temperature of about 20° C. and a relative atmospheric humidity of about 80%, in order to promote the development of mildew pustules.\n(§4) Evaluation is carried out 7 days after the inoculation."}, "[4]": {"system": "Erysiphe graminis f.sp. tritici", "assay": "Erysiphe test (wheat)/protective", "assay_type": "in vivo", "conditions": "protective, 125 g/ha, 7 days after inoculation", "description": "Erysiphe Test (Wheat)/Protective\nas §1, §2\nAfter the spray coating has dried on, the plants are dusted with spores of Erysiphe graminis f.sp. tritici.\nas §3\nEvaluation is carried out 7 days' after the inoculation."}, "[5]": {"system": "Leptosphaeria nodorum", "assay": "Leptosphaeria nodorum test (wheat)/protective", "assay_type": "in vivo", "conditions": "protective, 125 g/ha, 10 days after inoculation", "description": "Leptosphaeria nodorum Test (Wheat)/Protective\nas §1, §2\nAfter the spray coating has dried on, the plants are sprayed with a spore suspension of Leptosphaeria nodorum. The plants remain for 48 hours in an incubation cabin at 20° C. and 100% relative atmospheric humidity.\nThe plants are placed in a greenhouse at a temperature of about 15° C. and a relative atmospheric humidity of about 80%.\nEvaluation is effected 10 days after the inoculation."}, "[6]": {"system": "Erysiphe graminis f.sp. hordei", "assay": "Erysiphe test (barley)/curative", "assay_type": "in vivo", "conditions": "curative, 7 days after inoculation", "description": "Erysiphe Test (Barley)/Curative\nas §1\nTo test for curative activity, young plants are dusted with spores of Erysiphe graminis f.sp. hordei. 48 hours after the inoculation, the plants are sprayed with the preparation of active compound at the application rate shown.\nas §3, §4\nThe expected degree of effectiveness in % of the untreated control was calculated using the equation [formula]\nin which x and y denote, respectively, the degree of effectiveness—expressed in % of the untreated control—obtained by the two preparations when used separately. If the actually observed degree of effectiveness of the active compound combination exceeds the value calculated for the expected degree of effectiveness (E) using the abovementioned formula, then there is a superadditive, i.e. synergistic, effect."}, "[7]": {"system": "Fusarium nivale", "assay": "Fusarium nivale test (wheat)/seed treatment", "assay_type": "in vivo", "conditions": "approx. 3 weeks after sowing", "description": "Fusarium nivale Test (Wheat)/Seed Treatment\n(§5) The active compounds are used as a powder for dry seed treatment. They are prepared by extending the active compound in question with rock meal to give a finely pulverulent mixture which guarantees uniform distribution on the seed surface.\n(§6) To carry out the seed treatment, the infected seed and the seed-dressing product are shaken for 3 minutes in a sealed glass flask.\n2×100 wheat kernels are sown in standard soil at a depth of 1 cm and grown in the greenhouse at a temperature of approximately 10° C. and a relative atmospheric humidity of approximately 95% in seed boxes which are exposed to the light for 15 hours per day.\nApproximately 3 weeks after sowing, the plants are evaluated for snow blight symptoms."}, "[8]": {"system": "Drechslera graminea", "assay": "Drechslera graminea test (barley)/seed treatment (syn. Helminthosporium gramineum)", "assay_type": "in vivo", "conditions": "approx. 3 weeks after sowing", "description": "Drechslera graminea Test (Barley)/Seed Treatment (syn. Helminthosporium gramineum)\nas §5, §6\nThe seed, embedded in screened, moist standard soil in sealed Petri dishes, is exposed to a temperature of 4° C. for 10 days in a refrigerator. This triggers germination of the barley and, if appropriate, of the fungal spores. 2×50 pregerminated barley kernels are subsequently sown in standard soil at a depth of 3 cm and grown in a greenhouse at a temperature of approximately 18° in seed boxes which are exposed to the light for 15 hours per day.\nApproximately 3 weeks after sowing, the plants are evaluated for symptoms of barley leaf stripe."}},
  "data": [
    {"compound": "CC1(C(=O)Nc2ccc(O)c(Cl)c2Cl)CCCCC1", "note": "[(I)]", "values": [
      {"measurement": "Degree of effectiveness in % of the untreated control", "setting": "[1]; 5 ppm", "value": 29, "unit": "%"},
      {"measurement": "Degree of effectiveness in % of the untreated control", "setting": "[2]", "value": 24, "unit": "%"},
      {"measurement": "Degree of effectiveness in % of the untreated control", "setting": "[3]", "value": 18, "unit": "%"},
      {"measurement": "Degree of effectiveness in % of the untreated control", "setting": "[4]", "value": 25, "unit": "%"},
      {"measurement": "Degree of effectiveness in % of the untreated control", "setting": "[5]", "value": 57, "unit": "%"},
      {"measurement": "Degree of effectiveness in % of the untreated control", "setting": "[6]; 20 g/ha", "value": 25, "unit": "%"},
      {"measurement": "Degree of effectiveness in % of the untreated control", "setting": "[7]; 25 mg/kg of seed", "value": 0, "unit": "%"},
      {"measurement": "Degree of effectiveness in % of the untreated control", "setting": "[7]; 100 mg/kg of seed", "value": 22, "unit": "%"},
      {"measurement": "Degree of effectiveness in % of the untreated control", "setting": "[8]; 50 mg/kg of seed", "value": 41, "unit": "%"},
      {"measurement": "Degree of effectiveness in % of the untreated control", "setting": "[8]; 100 mg/kg of seed", "value": 43, "unit": "%"}
    ]},
    {"compound": "CCCN(CC)CC1COC2(CCC(C(C)(C)C)CC2)O1", "note": "(stereo not drawn) [(L), 8-(,1,1-dimethylethyl)-N-ethyl-N-propyl-1,4-dioxaspiro[4,5]decane-2-methaneamine]", "values": [
      {"measurement": "Degree of effectiveness in % of the untreated control", "setting": "[1]; 200 ppm", "value": 0, "unit": "%"},
      {"measurement": "Degree of effectiveness in % of the untreated control", "setting": "[6]; 10 g/ha", "value": 66, "unit": "%"}
    ]},
    {"compound": "CNC(=O)/C(=N/OC)c1ccccc1Oc1ccccc1", "note": "[(M), (E)-α-(methoxyimino)-N-methyl-2-phenoxy-benzacetamide]", "values": [
      {"measurement": "Degree of effectiveness in % of the untreated control", "setting": "[1]; 25 ppm", "value": 28, "unit": "%"}
    ]},
    {"compound": "CNC(=O)/C(=N/OC)c1ccccc1COc1cc(C)ccc1C", "note": "[(N), (E)-α-(methoxyimono)-N-methyl-2-(2,5-dimethyl-phenoxy-methyl)-benzacetamide]", "values": [
      {"measurement": "Degree of effectiveness in % of the untreated control", "setting": "[1]; 12.5 ppm", "value": 64, "unit": "%"}
    ]},
    {"compound": "Cc1ccc(C(C)NC(=O)C(NC(=O)OC(C)C)C(C)C)cc1", "note": "(stereo not drawn) [(O), 1-methylethyl [2-methyl-1-[[[1-(4-methylphenyl)ethyl]amino]carbonyl]propyl]-carbamate]", "values": [
      {"measurement": "Degree of effectiveness in % of the untreated control", "setting": "[1]; 200 ppm", "value": 19, "unit": "%"}
    ]},
    {"compound": "Cc1cc(C2CC2)nc(Nc2ccccc2)n1", "note": "[Ciprodinyl, cyprodinyl]", "values": [
      {"measurement": "Degree of effectiveness in % of the untreated control", "setting": "[1]; 5 ppm", "value": 5, "unit": "%"}
    ]},
    {"compound": "Fc1ccc(C2(Cn3cncn3)OC2c2ccccc2Cl)cc1", "note": "(stereo not drawn) [Epoxiconazole, epoxiconazole]", "values": [
      {"measurement": "Degree of effectiveness in % of the untreated control", "setting": "[5]", "value": 57, "unit": "%"}
    ]},
    {"compound": "CCCCc1c(C)nc(NCC)nc1O", "note": "[Ethirimol, ethirimol]", "values": [
      {"measurement": "Degree of effectiveness in % of the untreated control", "setting": "[8]; 100 mg/kg of seed", "value": 8, "unit": "%"}
    ]},
    {"compound": "N#Cc1c[nH]cc1-c1cccc(Cl)c1Cl", "note": "[Fenpiclonil, fenpiclonil]", "values": [
      {"measurement": "Degree of effectiveness in % of the untreated control", "setting": "[7]; 25 mg/kg of seed", "value": 6, "unit": "%"},
      {"measurement": "Degree of effectiveness in % of the untreated control", "setting": "[8]; 50 mg/kg of seed", "value": 41, "unit": "%"}
    ]},
    {"compound": "CC(Cc1ccc(C(C)(C)C)cc1)CN1CCCCC1", "note": "(stereo not drawn) [Fenpropidin, fenpropidin]", "values": [
      {"measurement": "Degree of effectiveness in % of the untreated control", "setting": "[1]; 50 ppm", "value": 0, "unit": "%"}
    ]},
    {"compound": "N#Cc1c[nH]cc1-c1cccc2c1OC(F)(F)O2", "note": "[Fludioxonil]", "values": [
      {"measurement": "Degree of effectiveness in % of the untreated control", "setting": "[1]; 1 ppm", "value": 5, "unit": "%"}
    ]},
    {"compound": "O=c1c2cc(F)ccc2nc(-n2cncn2)n1-c1ccc(Cl)cc1Cl", "note": "[Fluquinconazole, fluquinconazole]", "values": [
      {"measurement": "Degree of effectiveness in % of the untreated control", "setting": "[1]; 25 ppm", "value": 29, "unit": "%"}
    ]},
    {"compound": "CC(=O)O.CC(=O)O.CC(=O)O.NC(N)=NCCCCCCCCNCCCCCCCCN=C(N)N", "note": "[Iminoctadine triacetate]", "values": [
      {"measurement": "Degree of effectiveness in % of the untreated control", "setting": "[3]", "value": 27, "unit": "%"}
    ]},
    {"compound": "Cc1ccc2nc3sc(=O)sc3nc2c1", "note": "[Quinomethionate, quinomethionate]", "values": [
      {"measurement": "Degree of effectiveness in % of the untreated control", "setting": "[1]; 50 ppm", "value": 0, "unit": "%"},
      {"measurement": "Degree of effectiveness in % of the untreated control", "setting": "[4]", "value": 9, "unit": "%"}
    ]},
    {"compound": "O=S([O-])CO.[Na+]", "note": "[Sodium hydroxymethyl sulphinate]", "values": [
      {"measurement": "Degree of effectiveness in % of the untreated control", "setting": "[1]; 200 ppm", "value": 32, "unit": "%"}
    ]}
  ]
}
